Measured values as given in US7381745B2, “Ligands for metabotropic glutamate receptors and inhibitors of NAALADase” (Georgetown University, priority 1999, dated 2008).
Several values for one entry are separate records, joined by “and”; a condition that tells them apart may be missing. Equal entries are not always repeated. Where two headings read alike, the source gives them in different places. Blank lines part the entries; values can stand above or below the compound they belong to. Residues, ends and D or L forms follow the SMILES beside them.

Experiments:
rat GCPII [1] = target: T1, rat GCPII (Rattus norvegicus, UniProt P70627); details: cited from earlier work; for IC50: read-out: IC50 against GCPII
T1 construct: expressed in transfected cells

rat GCPII [2] = target: T1, rat GCPII; experiment: Inhibition of rat GCPII stably expressed in CHO cells; assay type: biochemical; details: for IC50: read-out: IC50 against expressed rat GCPII
[3] = system: transient middle cerebral artery occlusion; details: cited from earlier work
mGluR3 [4] = target: T2, mGluR3 (Rattus norvegicus, UniProt P31422); experiment: mGluR3 receptor activation (cell lines transfected with mGluRs); assay type: cell-based
T2 construct: expressed in transfected cells
Description: Our studies began from the dipeptide N-acetyl-L-aspartate-L-glutamate (NAAG), a dipeptide that is quite abundant in the brain, and which is believed to act as a transmitter or co-transmitter in the central nervous system, much like glutamate itself. […] 69, 174(1997)]. Recently, a brain enzyme was identified that is specific for the cleavage of N-acetylated α-linked acidic dipeptides, and as a result this enzyme was named NAALADase [J. Biol. Chem., 1987, 262, 14498].

[5] = system: NMDA toxicity in cortical neuronal cells; experiment: NMDA toxicity model C: cortical neurons given medium from drug-treated glial cells, LDH release; assay type: cell-based, mice; details: for Neuroprotection against NMDA toxicity: model C protocol, 1 μM, LDH at 24 hours
Description: (§1) We have tested the validity of these statements using three models of NMDA toxicity in cultures of cortical neurons prepared from fetal mice. The first model (A) consists of using a culture containing neurons without glial cells. NMDA (75 μM) is applied for 10 min without or with the tested compound. Then the culture medium is replaced and cells are left for 24 hours to develop toxicity. The second model (B) involves the use of mice cortical neurons which are seeded on a layer of confluent glial cells (mostly astrocytes) prepared from cerebral cortex of newborn mice. The incubations are identical as in model A. The third model (C) separates the neuronal and glial cultures. Glial cultures are treated with the tested neuroprotective compound in order to induce the release of protective factors into the medium. In parallel, cultures of cortical neurons (without glia) are treated for 10 min with NMDA (20 μM). Then NMDA is washed out and the neurons are treated with the medium collected from the treated glial cells. In all cases toxicity is assessed 24 hours after NMDA treatment by measurements of lactate dehydrogenase (LDH) activity accumulated in the medium during this period of time.
This was done using a published protocol in which cultures of cortical glial cells are first treated with the test compound in order to induce the release of protective factors into the medium. In parallel, cultures of cortical neurons (without glia) are exposed for 10 min to the excitotoxic action of NMDA (20 μM). The NMDA is removed by washing, and the neurons are treated with the medium collected from the treated glial cells. Toxicity is then assessed 24 hours after NMDA treatment by the measurement of lactate dehydrogenase (LDH) activity, which serves as a marker for dying cells. […] Among the potent GCPII inhibitors tested, three compounds [HO2C(CH2)2CH(CO2H)CH2]2P(O)(OH), (S)-Glu-C(O)-(S)Glu, and (S)-Asp-C(O)-(S)Glu produced at 1 μM a similarly modest neuroprotection ranging from 21% to 31%. In contrast, the two Cys-containing compounds, (t-Bu)Cys-C(O)-(S)-Glu and (S)-Cys-C(O)-(S)-Glu, produced 69% and 50% neuroprotection, respectively. While the exact mechanism of this neuroprotective effect cannot be explained based entirely upon GCPII inhibition, these exciting results warrant further study in other models of in vitro toxicity, including the assessment of the compounds' effects in vivo.

NMDA-induced cell death = details: other in vitro models; cited from earlier work
mGluR3 [6] = target: T2, mGluR3; details: cited from earlier work
[7] = system: NMDA toxicity in cultures of cortical neurons; experiment: NMDA toxicity model A: cortical neurons without glial cells, LDH release; assay type: cell-based, mice; details: 10 μM, NMDA 75 μM
Description: as §1

[8] = system: NMDA toxicity in mixed cultures of cortical neuronal-glial cells; experiment: NMDA toxicity model B: mixed cortical neuronal-glial cultures, LDH release; assay type: cell-based, mice
Description: as §1

[9] = system: U-87 glioblastoma multiforme cells; experiment: Antiangiogenesis in s.c. glioblastoma xenografts (vWF staining); assay type: in vivo; details: 100 μM, 0.1 mL once daily into base of xenograft, harvested at 7 days
Description: Implanted xenografts were formed by s.c. inoculation with 2×10^6 U-87 glioblastoma multiforme cells mixed with 0.5 mg Matrigel. FN11 was dissolved in PBS to a concentration of either 10 or 100 μM, and injections (0.1 mL) were made once daily into the base of the s.c. implanted xenografts. The starting volumes of the tumors were approximately 250 mm^3. The results from this protocol are depicted in FIG. 15.
Control tumors and tumors grown under the conditions described in Example 21 were harvested at the end of 7 days, fixed in formalin and embedded in paraffin for sectioning. Tissue was stained immunohistochemically for von Willebrand's factor (vWF) to obtain a measure of vascularization. FIGS. 13 and 14 present the results of this protocol for the tumor treated with FN11 at 100 μM. FIG. 13 was taken at low magnification (100×), whereas FIG. 14 was taken at high magnification (400×).

NAALADase = NAALADase (Rattus norvegicus, UniProt P70627); experiment: NAALADase inhibition; assay type: biochemical; details: read-out: IC50 as NAALADase inhibitor
Chain of NAALADase (P70627 whole entry): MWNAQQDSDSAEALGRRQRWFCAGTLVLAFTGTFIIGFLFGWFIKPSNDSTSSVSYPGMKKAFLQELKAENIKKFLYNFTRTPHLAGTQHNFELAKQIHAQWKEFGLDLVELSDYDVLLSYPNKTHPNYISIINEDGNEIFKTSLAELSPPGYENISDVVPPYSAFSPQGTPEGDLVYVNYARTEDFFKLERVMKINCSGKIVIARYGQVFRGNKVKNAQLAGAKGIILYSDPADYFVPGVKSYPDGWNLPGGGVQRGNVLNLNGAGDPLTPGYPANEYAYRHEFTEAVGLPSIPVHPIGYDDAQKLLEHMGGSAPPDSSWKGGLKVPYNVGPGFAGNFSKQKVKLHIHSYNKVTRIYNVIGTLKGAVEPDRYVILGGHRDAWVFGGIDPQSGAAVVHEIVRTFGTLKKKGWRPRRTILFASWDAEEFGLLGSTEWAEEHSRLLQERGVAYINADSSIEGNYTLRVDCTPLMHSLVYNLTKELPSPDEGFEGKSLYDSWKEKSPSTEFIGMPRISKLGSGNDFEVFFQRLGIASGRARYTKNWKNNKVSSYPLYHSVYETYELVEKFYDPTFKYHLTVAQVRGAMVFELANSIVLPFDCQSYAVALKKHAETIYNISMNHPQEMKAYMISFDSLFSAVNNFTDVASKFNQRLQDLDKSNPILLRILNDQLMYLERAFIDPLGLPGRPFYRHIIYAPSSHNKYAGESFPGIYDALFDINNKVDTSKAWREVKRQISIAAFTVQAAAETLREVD

T2 sequence (P31422 23-879): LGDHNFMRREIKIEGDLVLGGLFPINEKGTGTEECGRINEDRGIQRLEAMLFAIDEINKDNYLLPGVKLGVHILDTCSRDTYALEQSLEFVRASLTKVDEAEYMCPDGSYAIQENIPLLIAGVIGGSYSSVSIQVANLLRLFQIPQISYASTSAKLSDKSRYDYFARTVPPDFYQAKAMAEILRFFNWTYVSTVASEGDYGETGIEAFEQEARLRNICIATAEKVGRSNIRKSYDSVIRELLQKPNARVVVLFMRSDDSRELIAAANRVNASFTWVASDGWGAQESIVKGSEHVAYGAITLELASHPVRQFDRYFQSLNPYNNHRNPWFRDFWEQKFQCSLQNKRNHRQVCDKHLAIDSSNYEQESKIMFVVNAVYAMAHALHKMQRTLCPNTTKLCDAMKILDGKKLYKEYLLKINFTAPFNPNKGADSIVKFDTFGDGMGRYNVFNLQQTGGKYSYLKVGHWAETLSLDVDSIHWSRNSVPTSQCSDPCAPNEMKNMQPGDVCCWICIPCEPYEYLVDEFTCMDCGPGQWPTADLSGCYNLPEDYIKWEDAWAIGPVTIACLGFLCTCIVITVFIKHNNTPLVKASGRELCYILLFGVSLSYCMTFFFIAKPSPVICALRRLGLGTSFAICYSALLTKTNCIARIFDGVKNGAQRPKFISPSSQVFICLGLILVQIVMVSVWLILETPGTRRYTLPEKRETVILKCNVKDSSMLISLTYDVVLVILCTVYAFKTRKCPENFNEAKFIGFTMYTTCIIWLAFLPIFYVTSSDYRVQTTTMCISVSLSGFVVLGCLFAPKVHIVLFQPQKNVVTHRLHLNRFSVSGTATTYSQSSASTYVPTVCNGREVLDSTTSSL
T1 sequence (P70627 whole entry): as the sequence (P70627 whole entry) above

Compound: N[C@@H](CC(=O)O)C(=O)N[C@@H](CC(=O)O)C(=O)O [(S)-Asp-(S)-Asp, reference compound] (H-Asp-Asp-OH)
- inhibition of GCPII (rat GCPII [1]; at 100 μM, dipeptide, published data for comparison): 42% inhibition at 100 μM
- IC50 (rat GCPII [1]; published data, ref. 6a): 58000 nM

- fold less potent than (S)Glu-C(O)-(S)Glu at GCPII (rat GCPII [2]): 16 fold
Compound: N[C@@H](CCC(=O)O)C(=O)N[C@@H](CCC(=O)O)C(=O)O [(S)-Glu-(S)-Glu, reference compound] (H-Glu-Glu-OH)

- IC50 (rat GCPII [2]): 3800 nM
Compound: O=C(O)C[C@H](NC(=O)N[C@@H](CC(=O)O)C(=O)O)C(=O)O [PC103]

- GCPII inhibitory activity (in words) (rat GCPII [2]): inactive
- inhibition at 1 µM (rat GCPII [2]; at 1 μM): 46%
Compound: O=C(O)CC[C@H](NC(=O)NCC(=O)O)C(=O)O [PC108]

Compound: 2-(phosphomethyl)pentanedioic acid [PMPA, reference compound]
- Glutamate and NAAG levels (in words) ([3]; rat MCAO model): decreased glutamate levels while increasing NAAG levels
- Protection against injury (in words) ([3]; rats, Slusher et al.): significant protection against injury
- mGluR3 activity (in words) (mGluR3 [4]): act as an agonist at mGluR3
- Neuroprotection against NMDA toxicity ([5]; NMDA 20 μM): about 25%
- Neuroprotection (in words) ([5]; model C, compared with FN6 enantiomers): less effective
- Neuroprotection against NMDA-induced cell death (NMDA-induced cell death): 16%

- mGluR3 activity (in words) (mGluR3 [4]): retained significant mGluR3 activity
Compound: O=C(O)CCC(CC(=O)CC(CCC(=O)O)C(=O)O)C(=O)O (stereo not shown) [A]

Compound: CC(=O)N[C@@H](CC(=O)O)C(=O)N[C@@H](CCC(=O)O)C(=O)O [NAAG, N-acetyl-L-aspartate-L-glutamate, reference compound] (Ac-Asp-Glu-OH)
- EC50 (mGluR3 [6]; cell lines transfected with mGluR1-6, read-out: EC50 for activation of mGluR3): 65000 ± 20000 nM

Compound: O=C(O)CC[C@@H](NC(=O)N[C@H](CCC(=O)O)C(=O)O)C(=O)O [FN13]
- Neuroprotection ([5]; model C, 100 μM): about 20%

- GCPII inhibitory activity (in words) (rat GCPII [2]): inactive
- inhibition of expressed rat GCPII (rat GCPII [2]; at 1 μM): 9% inbibition at 1 μM
Compound: O=C(O)CC[C@H](NC(=O)C(=O)N[C@@H](CCC(=O)O)C(=O)O)C(=O)O [(S)-Glu-C(O)-C(O)-(S)-Glu]

- GCPII inhibitory activity (in words) (rat GCPII [2]): inactive
- inhibition at 1 µM (rat GCPII [2]; at 1 μM): 10%
Compound: CC(C)(C)NC(=O)N[C@@H](CCC(=O)O)C(=O)O [PC113]

Compound: O=C(O)CC[C@H](NC(=O)N[C@H](CCC(=O)O)C(=O)O)C(=O)O [FN16]
- inhibition at 100 µM (rat GCPII [2]; read-out: inhibition of expressed rat GCPII): 97%

- IC50 (rat GCPII [2]): 101 ± 19.3 nM
- Ki (rat GCPII [2]; read-out: Ki against GCPII): ~100 nM
Compound: CC(C)(C)SC[C@H](NC(=O)N[C@@H](CCC(=O)O)C(=O)O)C(=O)O [PC120]
- Neuroprotection against NMDA toxicity ([5]; NMDA 20 μM): 69%

Compound: O=C(O)CC[C@H](NC(=O)N[C@@H](CC(=O)O)C(=O)O)C(=O)O [PC107]
- IC50 (rat GCPII [2]; listed as (S)-Asp-C(O)-(S)-Glu): 46 nM and 46.1 nM

- melting point: > 142 °C
Compound: O=C(O)C[C@H](NC(=O)N[C@@H](CC(=O)O)C(=O)O)C(=O)O (hydrate or solvate) [PC103]

Compound: NC1(C(=O)O)CC2CC1C2C(=O)O (stereo not shown) [ABHxD-I, 2-aminobicyclo 2.1.1 hexahe-2.5-dicarboxylic acid, reference compound]
- Protection against NMDA toxicity (in words) [7]: not able to protect against NMDA toxicity
- Reduction of the toxic effect of NMDA ([8]; 10 μM, NMDA 75 μM): over 40%
- Protection against NMDA toxicity (in words) ([5]; model C, 10 μM, NMDA 20 μM): as effective as in model B

Compound: O=C(O)CC[C@H](NC(=O)N[C@@H](CCC(=O)O)C(=O)O)C(=O)O [FN11]
- Vascularization of tumor (von Willebrand's factor staining) [9]: preponderance of avascular and low vascular areas
- IC50 (rat GCPII [2]): 47 nM

- IC50 (NAALADase): 4 nM
Compound: O=C(O)CCC(CP(=O)(O)CC(CCC(=O)O)C(=O)O)C(=O)O (racemic) [FN6, 4,4′-phosphinicobis(butane-1,3-dicarboxylic acid)]
- IC50 (rat GCPII [1]; previous work, listed as PBBDA): 21.7 ± 2.1 nM
- IC50 (rat GCPII [1]; previous work, listed as [HO2C(CH2)2CH(CO2H)CH2]2P(O)(OH)): 26 nM
- Neuroprotection ([8]; 300 μM): about 30%
- EC50 (mGluR3 [6]; previous work, read-out: mGluR3 selective agonist potency): ~30000 nM

Compound: O=C(O)CC[C@H](NC(=O)N[C@@H](CS)C(=O)O)C(=O)O [PC118]
- Neuroprotection against NMDA toxicity ([5]; NMDA 20 μM): 50%
- GCPII inhibitory activity (in words) (rat GCPII [2]): nearly as potent as (S)-Glu-C(O)-(S)-Glu
- IC50 (rat GCPII [2]): 72.4 ± 6.5 nM

- GCPII inhibitory activity (in words) (rat GCPII [2]; tested at 1 μM): Inactive at 1 μM
Compound: O=C(NC(CS)C(=O)O)NC(CS)C(=O)O [(S)-Cys-C(O)-(S)-Cys]

- melting point: 108 to 110 °C
Compound: CC(C)(C)NC(=O)N[C@@H](CCC(=O)O)C(=O)O (hydrate or solvate) [PC113]
